Measurements taken from patent publication US20250346600A1, “TRICYCLIC DERIVATIVES AND RELATED USES” (MOMA Therapeutics, Inc., priority 2023, published 2025).

Experiments:
[1] = biological target: T1, Full length WRN protein (aa 2-1432) (Homo sapiens (Human), UniProt Q14191); experiment: WRN ATPase ADP-Glo biochemical assay, Assay Format A (10 μM ATP); conditions: 0.25 nM WRN, 100 nM C6.18 ssDNA, 30 min preincubation, read-out: ATPase ADPGlo AC50 (uM)- Assay Format A
Outline: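 Sf9-expressed FLAG-AVI-TEV-tagged WRN (0.5 nM) preincubated 30 min with compound (11-point 3-fold dilution). Reaction started with 200 nM C6.18 39-mer ssDNA and 20 μM ATP (addition concentrations), run 30 min at room temperature. ADP measured by ADP-Glo luminescence; IC50 from four-parameter fit, geometric mean of ≥2 runs.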

[2] = biological target: T1, Full length WRN protein (aa 2-1432); experiment: WRN ATPase ADP-Glo biochemical assay, Assay Format B (100 μM ATP); conditions: 0.25 nM WRN, 100 nM C6.18 ssDNA, 60 min preincubation, read-out: ATPase ADPGlo AC50 (uM)- Assay Format B
[3] = tested on: HCT116 cells; experiment: HCT116 (MSI) 7 day viability, CellTiter Glo; assay type: cell-based; conditions: Homo sapiens, HCT-116, 168 h, 7 days, read-out: HCT116 (MSI) Viability 7 Day Abs AC50
Outline: (§1)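 Seven-day viability is assessed with CellTiter Glo after compounds, diluted in ten 3-fold steps in DMSO, are exposed to HCT116 (50 cells/well) or HT29 (500 cells/well). Reported IC50 is the geometric mean of at least two independent runs.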

[4] = tested on: HT29 cells; experiment: HT29 (MSS) 7 day viability, CellTiter Glo; assay type: cell-based; conditions: Homo sapiens, HT-29, 168 h, 7 days, read-out: HT29 (MSS) Viability 7 Day CTGAbs AC50
Outline: as §1

T1 sequence (Q14191 2-1432): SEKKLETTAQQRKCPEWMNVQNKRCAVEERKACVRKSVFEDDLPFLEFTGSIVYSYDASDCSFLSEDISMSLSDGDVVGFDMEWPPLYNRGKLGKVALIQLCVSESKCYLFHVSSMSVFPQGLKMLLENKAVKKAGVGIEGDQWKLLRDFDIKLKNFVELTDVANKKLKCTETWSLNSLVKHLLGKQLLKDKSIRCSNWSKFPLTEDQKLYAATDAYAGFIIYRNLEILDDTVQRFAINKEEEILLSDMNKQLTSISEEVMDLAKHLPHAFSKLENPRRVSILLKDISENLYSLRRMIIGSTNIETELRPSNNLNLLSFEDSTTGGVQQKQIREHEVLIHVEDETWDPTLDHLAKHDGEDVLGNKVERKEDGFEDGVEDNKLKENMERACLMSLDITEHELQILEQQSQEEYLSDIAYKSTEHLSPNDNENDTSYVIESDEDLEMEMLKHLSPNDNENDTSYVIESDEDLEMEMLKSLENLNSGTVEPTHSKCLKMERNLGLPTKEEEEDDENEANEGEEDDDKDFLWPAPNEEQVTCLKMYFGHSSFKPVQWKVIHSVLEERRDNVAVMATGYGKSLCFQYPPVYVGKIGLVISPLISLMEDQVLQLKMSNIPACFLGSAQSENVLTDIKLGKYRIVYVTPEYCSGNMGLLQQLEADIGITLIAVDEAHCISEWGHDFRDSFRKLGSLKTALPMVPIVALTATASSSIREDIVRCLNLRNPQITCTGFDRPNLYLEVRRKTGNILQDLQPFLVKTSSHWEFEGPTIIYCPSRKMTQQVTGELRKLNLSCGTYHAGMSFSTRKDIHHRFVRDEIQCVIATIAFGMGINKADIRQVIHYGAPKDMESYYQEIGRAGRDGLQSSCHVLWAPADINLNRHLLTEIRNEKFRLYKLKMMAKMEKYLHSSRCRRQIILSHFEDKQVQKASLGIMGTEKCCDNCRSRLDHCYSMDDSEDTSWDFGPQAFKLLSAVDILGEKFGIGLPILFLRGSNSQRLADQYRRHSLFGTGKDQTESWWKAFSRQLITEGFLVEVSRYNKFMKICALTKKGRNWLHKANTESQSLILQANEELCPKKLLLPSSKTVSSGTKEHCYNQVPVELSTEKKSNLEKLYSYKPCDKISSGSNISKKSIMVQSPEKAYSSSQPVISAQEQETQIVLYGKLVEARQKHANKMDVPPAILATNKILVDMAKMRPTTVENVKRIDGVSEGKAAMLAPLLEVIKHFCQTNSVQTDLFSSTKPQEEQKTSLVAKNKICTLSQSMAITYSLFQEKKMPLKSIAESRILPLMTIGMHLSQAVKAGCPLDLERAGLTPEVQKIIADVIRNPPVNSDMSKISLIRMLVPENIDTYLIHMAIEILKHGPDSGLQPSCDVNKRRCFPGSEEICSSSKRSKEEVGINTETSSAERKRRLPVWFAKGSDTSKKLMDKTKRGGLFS

Structure (SMILES)	AC50 [1]	AC50 [2]	AC50 [3]	AC50 [4]
C=CC(=O)N1CC(C)c2nn(-c3ccc(C4CC4)cc3O)c3c2C(C1)N(C(=O)c1cnc(C(F)(F)F)cc1N)CC3 (stereo not shown) [Compound 189, 1-(5-(4-amino-6-(trifluoromethyl)nicotinoyl)-2-(4-cyclopropyl-2-hydroxyphenyl)-9-methyl-2,3,4,5,5a,6,8,9-octahydro-7H-1,2,5,7-tetraazabenzo[cd]azulen-7-yl)prop-2-en-1-one]	< 0.0015 µM	0.005 to 0.015 µM	0.001 to 0.1 µM	> 3 µM
C=CC(=O)N1CC(OC2CC3(COC3)C2)c2nn(-c3ccc(C4CCC4)cc3)c3c2C(C1)N(C(=O)c1cnc(C(F)(F)F)cc1N)CC3 (stereo not shown) [Compound 246]	< 0.0015 µM	0.005 to 0.015 µM	0.001 to 0.1 µM	> 3 µM
C=CC(=O)N1CCc2nn(-c3ccc(C(C)C)cc3)c3c2C(C1)N(C(=O)c1ccc(Br)c(-c2cc[nH]n2)c1)CC3 (stereo not shown) [Compound 106, 1-(5-(4-bromo-3-(1H-pyrazol-3-yl)benzoyl)-2-(4-isopropylphenyl)-2,3,4,5,5a,6,8,9-octahydro-7H-1,2,5,7-tetraazabenzo[cd]azulen-7-yl)prop-2-en-1-one]	0.0015 to 0.005 µM	> 0.055 µM	0.25 to 0.5 µM	> 3 µM
C=CC(=O)N1CCc2nc(-c3ccc(C4CCC4)cc3)n3c2C(C1)N(C(=O)c1cnc(C(F)(F)F)c(O)c1)CC3 (stereo not shown) [Compound 86, 1-(2-(4-cyclobutylphenyl)-5-(5-hydroxy-6-(trifluoromethyl)nicotinoyl)-4,5,5a,6,8,9-hexahydro-1,2a,5,7-tetraazabenzo[cd]azulen-7(3H)-yl)prop-2-en-1-one]	< 0.0015 µM	0.015 to 0.055 µM	0.25 to 0.5 µM	> 3 µM
C=CC(=O)N1CCc2nn(-c3ccc(C45CC(C4)C5)cc3)c3c2C(C1)N(C(=O)c1ccc(C(F)(F)F)c2[nH]ncc12)CC3 (stereo not shown) [Compound 19, 1-(2-(4-(bicyclo[1.1.1]pentan-1-yl)phenyl)-5-(7-(trifluoromethyl)-1H-indazole-4-carbonyl)-2,3,4,5,5a,6,8,9-octahydro-7H-1,2,5,7-tetraazabenzo[cd]azulen-7-yl)prop-2-en-1-one]	0.0015 to 0.005 µM	0.015 to 0.055 µM	0.001 to 0.1 µM	> 3 µM
C=CC(=O)N1CCc2nn(-c3ccc(C4CC4)cc3)c3c2C(C1)N(C(=O)c1ccc(Br)c2[nH]nc(N)c12)CC3 (stereo not shown) [Compound 131, 1-(5-(3-amino-7-bromo-1H-indazole-4-carbonyl)-2-(4-cyclopropylphenyl)-2,3,4,5,5a,6,8,9-octahydro-7H-1,2,5,7-tetraazabenzo[cd]azulen-7-yl)prop-2-en-1-one]	< 0.0015 µM	0.005 to 0.015 µM	0.001 to 0.1 µM	> 3 µM
C=CC(=O)N1CCc2nn(-c3ccc(C(C)C)cc3)c3c2C(C1)N(C(=O)c1ccc(Br)c2ncn(CC4CCO4)c12)CC3 (stereo not shown) [Compound 82, 1-(5-(4-bromo-1-((oxetan-2-yl)methyl)-1H-benzo[d]imidazole-7-carbonyl)-2-(4-isopropylphenyl)-2,3,4,5,5a,6,8,9-octahydro-7H-1,2,5,7-tetraazabenzo[cd]azulen-7-yl)prop-2-en-1-one]	0.005 to 0.015 µM	> 0.055 µM	0.5 to 1 µM	> 3 µM
C=CC(=O)N1CCc2nn(-c3ccc(C45CC(C4)C5)c(F)c3)c3c2C(C1)N(C(=O)c1ccc(Br)c2[nH]cnc12)CC3 (stereo not shown) [Compound 84, 1-(2-(4-(bicyclo[1.1.1]pentan-1-yl)-3-fluorophenyl)-5-(7-bromo-1H-benzo[d]imidazole-4-carbonyl)-2,3,4,5,5a,6,8,9-octahydro-7H-1,2,5,7-tetraazabenzo[cd]azulen-7-yl)prop-2-en-1-one]	0.0015 to 0.005 µM	0.015 to 0.055 µM	0.001 to 0.1 µM	> 3 µM
C=CC(=O)N1CCOc2nn(-c3ccc(C4CCC4)cc3)c3c2C(C1)N(C(=O)c1ccc(Br)c2[nH]ncc12)CC3 (stereo not shown) [Compound 42, 1-(5-(7-bromo-1H-indazole-4-carbonyl)-2-(4-cyclobutylphenyl)-2,3,4,5,5a,6,8,9-octahydro-7H-10-oxa-1,2,5,7-tetraazacycloocta[cd]inden-7-yl)prop-2-en-1-one]	< 0.0015 µM	0.005 to 0.015 µM	0.001 to 0.1 µM	> 3 µM
C=CC(=O)N1CCOc2nn(-c3ccc(C(C)C)cc3O)c3c2C(C1)N(C(=O)c1cnc(C(F)(F)F)c(O)c1)CC3 (stereo not shown) [Compound 45, 1-(2-(2-hydroxy-4-isopropylphenyl)-5-(5-hydroxy-6-(trifluoromethyl)nicotinoyl)-2,3,4,5,5a,6,8,9-octahydro-7H-10-oxa-1,2,5,7-tetraazacycloocta[cd]inden-7-yl)prop-2-en-1-one]	0.0015 to 0.005 µM	0.015 to 0.055 µM	> 1 µM	> 3 µM
C=CC(=O)N1CCc2nn(-c3ccc(C(C)C)cc3O)c3c2C(C1)N(C(=O)c1ccc(Br)c2[nH]c(C(F)F)nc12)CC3 (stereo not shown) [Compound 174, 1-(5-(7-bromo-2-(difluoromethyl)-1H-benzo[d]imidazole-4-carbonyl)-2-(2-hydroxy-4-isopropylphenyl)-2,3,4,5,5a,6,8,9-octahydro-7H-1,2,5,7-tetraazabenzo[cd]azulen-7-yl)prop-2-en-1-one]	< 0.0015 µM	0.0015 to 0.005 µM	0.001 to 0.1 µM	> 3 µM

Further lines, with some results ahead:

AC50 [1]	AC50 [2]	Structure (SMILES)	AC50 [3]	AC50 [4]
0.0015 to 0.005 µM	0.005 to 0.015 µM	C=CC(=O)N1CCc2nn(-c3ccc(C4CC4)cc3)c3c2C(C1)N(C(=O)c1ccc(C(F)(F)F)nc1N)CC3 (stereo not shown) [Compound 67, 1-(5-(2-amino-6-(trifluoromethyl)nicotinoyl)-2-(4-cyclopropylphenyl)-2,3,4,5,5a,6,8,9-octahydro-7H-1,2,5,7-tetraazabenzo[cd]azulen-7-yl)prop-2-en-1-one]	0.001 to 0.1 µM	> 3 µM
< 0.0015 µM	0.005 to 0.015 µM	C=CC(=O)N1CCc2nn(-c3ccc(C4CCC4)cc3O)c3c2C(C1)N(C(=O)c1ccc2c(Br)n[nH]c2c1)CC3 (stereo not shown) [Compound 24, 1-(5-(3-bromo-1H-indazole-6-carbonyl)-2-(4-cyclobutyl-2-hydroxyphenyl)-2,3,4,5,5a,6,8,9-octahydro-7H-1,2,5,7-tetraazabenzo[cd]azulen-7-yl)prop-2-en-1-one]	0.001 to 0.1 µM	> 3 µM
< 0.0015 µM	0.005 to 0.015 µM	C=CC(=O)N1CCc2nn(-c3ccc(C4CCC4)cc3O)c3c2C(C1)N(C(=O)c1cnc2c(C)nn(C)c2c1)CC3 (stereo not shown) [Compound 145, 1-(2-(4-cyclobutyl-2-hydroxyphenyl)-5-(1,3-dimethyl-1H-pyrazolo[4,3-b]pyridine-6-carbonyl)-2,3,4,5,5a,6,8,9-octahydro-7H-1,2,5,7-tetraazabenzo[cd]azulen-7-yl)prop-2-en-1-one]	0.001 to 0.1 µM	> 3 µM
0.0015 to 0.005 µM	0.0015 to 0.005 µM	C=CC(=O)N1CCc2nn(-c3ccc(C4CC4)cc3O)c3c2C(C1)N(C(=O)c1cnc(C(C)(F)F)c(F)c1N)CC3 (stereo not shown) [Compound 206, 1-(5-(4-amino-6-(1,1-difluoroethyl)-5-fluoronicotinoyl)-2-(4-cyclopropyl-2-hydroxyphenyl)-2,3,4,5,5a,6,8,9-octahydro-7H-1,2,5,7-tetraazabenzo[cd]azulen-7-yl)prop-2-en-1-one]	0.001 to 0.1 µM	> 3 µM
0.0015 to 0.005 µM	0.005 to 0.015 µM	C=CC(=O)N1CCc2nn(-c3ccc(C4CC4)cc3O)c3c2C(C1)N(C(=O)c1cnc(C(F)(F)F)c(F)c1N)CC3 (stereo not shown) [Compound 194, 1-(5-(4-amino-5-fluoro-6-(trifluoromethyl)nicotinoyl)-2-(4-cyclopropyl-2-hydroxyphenyl)-2,3,4,5,5a,6,8,9-octahydro-7H-1,2,5,7-tetraazabenzo[cd]azulen-7-yl)prop-2-en-1-one]	0.001 to 0.1 µM	> 3 µM
0.0015 to 0.005 µM	0.015 to 0.055 µM	C=CC(=O)N1CCc2nn(-c3ccc(C4CC4)c(F)c3O)c3c2C(C1)N(C(=O)c1cnc(C(F)(F)F)c(O)c1)CC3 (stereo not shown) [Compound 100, 1-(2-(4-cyclopropyl-3-fluoro-2-hydroxyphenyl)-5-(5-hydroxy-6-(trifluoromethyl)nicotinoyl)-2,3,4,5,5a,6,8,9-octahydro-7H-1,2,5,7-tetraazabenzo[cd]azulen-7-yl)prop-2-en-1-one]	0.1 to 0.25 µM	> 3 µM
< 0.0015 µM	0.005 to 0.015 µM	C=CC(=O)N1CCc2nn(-c3ccc(C4CC4)cc3O)c3c2C(C1)N(C(=O)c1ccc(Br)nc1N)CC3 (stereo not shown) [Compound 193, 1-(5-(2-amino-6-bromonicotinoyl)-2-(4-cyclopropyl-2-hydroxyphenyl)-2,3,4,5,5a,6,8,9-octahydro-7H-1,2,5,7-tetraazabenzo[cd]azulen-7-yl)prop-2-en-1-one]	0.001 to 0.1 µM	> 3 µM
< 0.0015 µM	0.005 to 0.015 µM	C=CC(=O)N1CCc2nn(-c3ccc(C4CCC4)cc3O)c3c2C(C1)N(C(=O)c1ccc(OC(F)(F)F)nc1)CC3 (stereo not shown) [Compound 93, 1-(2-(4-cyclobutyl-2-hydroxyphenyl)-5-(6-(trifluoromethoxy)nicotinoyl)-2,3,4,5,5a,6,8,9-octahydro-7H-1,2,5,7-tetraazabenzo[cd]azulen-7-yl)prop-2-en-1-one]	0.001 to 0.1 µM	> 3 µM
